Data taken from US12590123B2, “Compounds and methods for treating cancer, viral infections, and allergic conditions” (Washington University, priority 2019, dated 2026).

Experiments:
Assay type in all cases: biochemical
[1] = target: T1, activated hepsin (Homo sapiens, UniProt P05981); assay: Fluorescent kinetic enzyme assay of hepsin activity (Boc-QAR-AMC); conditions: Table 2; read-out: Hepsin (IC50 nM)
T1 construct: purchased R&D Systems 4776-SE-010

[2] = target: Factor Xa (Homo sapiens, UniProt P00742); assay: Chromogenic kinetic enzyme assay of Factor Xa (S2222); conditions: Table 2; chromogenic assay; read-out: Factor Xa* (IC50 nM)
Sequence of Factor Xa (P00742 235-488 limits assumed): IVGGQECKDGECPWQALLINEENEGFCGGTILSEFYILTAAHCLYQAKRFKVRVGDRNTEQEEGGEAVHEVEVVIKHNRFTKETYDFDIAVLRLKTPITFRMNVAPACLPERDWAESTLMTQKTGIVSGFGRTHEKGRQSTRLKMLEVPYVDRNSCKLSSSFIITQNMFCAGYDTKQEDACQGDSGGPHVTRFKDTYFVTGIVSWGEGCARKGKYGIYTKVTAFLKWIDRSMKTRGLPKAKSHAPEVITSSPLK
Sequence of Factor Xa (P00742 41-179 partner limits assumed): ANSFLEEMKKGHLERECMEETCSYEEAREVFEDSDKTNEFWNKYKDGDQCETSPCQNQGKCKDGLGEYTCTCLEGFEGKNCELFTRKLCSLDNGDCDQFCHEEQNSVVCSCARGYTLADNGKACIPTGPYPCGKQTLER
Protocol: Using GraphPad Prism (GraphPad Software, San Diego, CA), a four-parameter curve fit was used to determine the inhibitor IC50s from a plot of the mean reaction velocity versus the inhibitor concentration. The IC50 values represent the average of three or more separate experimental determinations. Apparent Ki values were calculated from the IC50 values using the Cheng and Prusoff equation (Ki=IC50/(1+[S]/Km).
Using GraphPad Prism version 6.04 software program, (GraphPad Software, San Diego, CA, graphpad.com), a four parameter curve fit was used to determine the inhibitor IC50s from a plot of the mean reaction velocity versus the inhibitor concentration.
Fluorescent inhibitor and chromogenic proteolytic assays were performed for compounds prepared in Example 11 in general accordance with the procedures described in Example 9.

[3] = target: T2, recombinant HGFA serine protease domain (Homo sapiens, UniProt Q04756); assay: Fluorescent kinetic enzyme assay of HGFA activity (Boc-QLR-AMC); conditions: Table 2; read-out: HGFA (IC50 nM)
T2 construct: His6 tag (N); seven amino acid spacer plus TEV cleavage site (N); made in house; host or cells: High 5 insect cells (baculovirus; Sf9 for virus production)
T2 sequence (Q04756 373-655): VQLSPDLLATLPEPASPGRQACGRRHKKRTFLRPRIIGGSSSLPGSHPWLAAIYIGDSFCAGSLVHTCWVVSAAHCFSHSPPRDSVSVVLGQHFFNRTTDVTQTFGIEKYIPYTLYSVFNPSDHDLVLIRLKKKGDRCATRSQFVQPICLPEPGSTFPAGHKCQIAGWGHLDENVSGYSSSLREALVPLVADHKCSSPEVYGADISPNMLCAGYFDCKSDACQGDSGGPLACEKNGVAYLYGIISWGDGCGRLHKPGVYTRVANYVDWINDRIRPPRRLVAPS
From the text: The compounds prepared in Examples 1 to 8 were subjected to a series of inhibitions studies. The compounds were first tested in an HGFA enzymatic assay using the fluorogenic substrate Boc-QLR-AMC with a recombinant form of the HGFA serine protease domain.
This PCR product was cloned into the SfoI-HindIII sites of a modified pFastBac HT baculovirus expression vector (Addgene, Cambridge, MA). This vector contains a six amino His tag followed by a seven amino spacer and a seven amino acid TEV cleavage site placed immediately downstream of the honey bee melittin signal peptide. Using a modified Bac to Bac Expression System (Life Technologies, Carlsbad, CA), recombinant HGFA bacmids were obtained by transforming DH10Bac Escherichia coli cells. To obtain HGFA containing baculovirus, purified bacmids were transfected into Sf9 insect cells. After 5 days in culture at 27° C., media was harvested from transfected Sf9 cells. This media was used to prepare baculovirus infected insect cells (BIICs). These BIIICs were used to infect High 5 insect cells. Four days post infection, media was harvested, and recombinant protein was prepared as follows. Media was chilled to 4° C. and spun at 4000×g for 20 minutes (all subsequent steps were performed at 4° C. unless noted). Clarified media was passed first through a Whatman GF/B 1 um (#1821-047, GE Healthcare Life Sciences, Piscataway, NJ) and then a 0.22 μm PES membrane (#99955, TPP Techno Plastic Products AG, Trasadingen, Switzerland) and then concentrated using a Pall Centramate tangential flow system and Centramate T-series Cassette (#OS010T12, Pall Corporation, Port Washington, NY). Concentrated media was then buffer exchanged in two steps, five volumes of 50 mM Na-phosphate, 500 mM NaCl, pH 6.2, followed by five volumes of 50 mM Na-phosphate, 500 mM NaCl, pH 7.5. […] After mixing this slurry for 12 hours, nickel agarose beads were allowed to settle by gravity and then loaded into a column. Beads were washed with buffer (25 mM Na-phosphate, 500 mM NaCl, 25 mM imidazole, pH 8) and the bound protein eluted using (25 mM Na-phosphate, 500 mM NaCl, 250 mM imidazole, pH 8). Using a Amicon Ultra-4 Centrifugal filters (#UFC801008, Merck Millipore, Ltd., Tullagreen, Ireland), peak protein fractions were concentrated and run over a Superdex-200 10/300 GL column (GE Healthcare Life Sciences, Piscataway, NJ) in 10 mM Tris, 200 mM NaCl, 0.2 mM EDTA, pH 8. HGFA containing fractions were pooled, concentrated, made 50% glycerol, and stored at minus 20° C. Protein was quantitated using a modified Lowry protein assay (#500-0006, Bio-Rad Laboratories, Hercules, CA) and specific activity determined using Boc-QLR-AMC substrate.
Fluorescent kinetic enzyme assays of HGFA, matriptase, and hepsin activity: Compounds (0-20 μM final concentration in reaction) were diluted in DMSO (2% DMSO final concentration in reaction) and then mixed with either recombinant HGFA serine protease domain, matriptase (#3946-SE-010, R&D Systems, Minneapolis, Minnesota), or activated hepsin* (#4776-SE-010, R&D Systems, Minneapolis, Minnesota) in black 384 well plates (Corning #3575. Coming, NY). The final assay concentration for HGFA, matriptase, and hepsin, were 6.25 nM, 0.2 nM, and 0.3 nM, respectively in TNC buffer (25 mM Tris, 150 mM NaCl, 5 mM CaCl2, 0.01% Triton X-100, pH 8). After thirty minutes of incubation at room temperature, Boc-QLR-AMC substrate was added (HGFA assay) or Boc-QAR-AMC substrate (matriptase, and hepsin assays). Fluorescence (excitation at 380 nm and emission at 460 nm) was kinetically measured at room temperature over a 1 hour time period using a Biotek Synergy 2 plate reader (Winnoski, VT). From a plot of the mean reaction velocity versus the inhibitor concentration, a non-linear four parameter curve fit was performed using GraphPad Prism (GraphPad Software, San Diego, CA) to determine inhibitor IC50s. The IC50 values were determined from the average of three or more separate experimental determinations. […]

[4] = target: T3, matriptase (Homo sapiens, UniProt Q9Y5Y6); assay: Fluorescent kinetic enzyme assay of matriptase activity (Boc-QAR-AMC); conditions: Table 2; read-out: Matriptase (IC50 nM)
T3 construct: purchased R&D Systems 3946-SE-010
T3 sequence (Q9Y5Y6 615-855 limits assumed): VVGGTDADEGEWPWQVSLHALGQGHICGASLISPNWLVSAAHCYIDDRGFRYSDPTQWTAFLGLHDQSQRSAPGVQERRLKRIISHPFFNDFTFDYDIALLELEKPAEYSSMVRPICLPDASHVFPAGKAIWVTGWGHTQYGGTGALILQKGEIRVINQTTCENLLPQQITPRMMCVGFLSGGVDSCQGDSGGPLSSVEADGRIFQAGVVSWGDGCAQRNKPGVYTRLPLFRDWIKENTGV

T1 sequence (P05981 163-417 limits assumed): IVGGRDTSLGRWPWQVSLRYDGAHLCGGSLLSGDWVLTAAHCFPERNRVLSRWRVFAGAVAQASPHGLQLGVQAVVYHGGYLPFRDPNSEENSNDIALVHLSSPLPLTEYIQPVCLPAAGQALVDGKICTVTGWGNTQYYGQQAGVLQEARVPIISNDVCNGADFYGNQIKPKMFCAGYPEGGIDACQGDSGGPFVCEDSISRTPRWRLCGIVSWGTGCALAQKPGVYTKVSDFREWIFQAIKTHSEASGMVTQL
T1 sequence (P05981 1-162 partner limits assumed): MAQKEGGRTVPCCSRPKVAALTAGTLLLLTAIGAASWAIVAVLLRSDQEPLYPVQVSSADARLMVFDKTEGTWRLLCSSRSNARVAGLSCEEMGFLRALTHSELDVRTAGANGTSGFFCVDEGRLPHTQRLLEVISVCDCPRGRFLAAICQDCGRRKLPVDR

IC50 [1]	IC50 [2]	IC50 [3]	IC50 [4]	SMILES
0.46 nM	1550 nM	11400 nM	0.86 nM	CC(C)C[C@@H]1NC(=O)[C@@H](N)CC(=O)NCCCC[C@@H](C(=O)N[C@@H](CCCNC(=N)N)C(=O)c2nc3ccccc3s2)NC1=O [VD2055, (3S,6S,14S)-6-amino-N—((S)-1-(benzo[d]thiazol-2-yl)-5-guanidino-1-oxopentan-2-yl)-3-isobutyl-2,5,8-trioxo-1,4,9-triazacyclotetradecane-14-carboxamide]
11.9 nM		> 20000 nM	11.5 nM	CC(C)C[C@@H]1NC(=O)[C@@H](N)CCCCNC(=O)CC[C@@H](C(=O)N[C@@H](CCCNC(=N)N)C(=O)c2nc3ccccc3s2)NC1=O [VD2056, (2S,5S,14S)-14-amino-N—((S)-1-(benzo[d]thiazol-2-yl)-5-guanidino-1-oxopentan-2-yl)-2-isobutyl-3,8,15-trioxo-1,4,9-triazacyclopentadecane-5-carboxamide]
1.7 nM	723 nM	4470 nM	4.4 nM	CC(=O)N[C@H]1CCCCNC(=O)CC[C@@H](C(=O)N[C@@H](CCCNC(=N)N)C(=O)c2nc3ccccc3s2)NC(=O)[C@H](CC(C)C)NC1=O [VD2064, (2S,5S,14S)-14-acetamido-N—((S)-1-(benzo[d]thiazol-2-yl)-5-guanidino-1-oxopentan-2-yl)-2-isobutyl-3,8,15-trioxo-1,4,9-triazacyclopentadecane-5-carboxamide]
0.08 nM		5050 nM	0.13 nM	CC(=O)N[C@H]1CCCCNC(=O)CC[C@@H](C(=O)N[C@@H](CCCNC(=N)N)C(=O)c2nc3ccccc3s2)NC(=O)[C@H](CCCNC(=N)N)NC1=O [VD2109, (2S,5S,14S)-14-acetamido-N—((S)-1-(benzo[d]thiazol-2-yl)-5-guanidino-1-oxopentan-2-yl)-2-(3-guanidinopropyl)-3,8,15-trioxo-1,4,9-triazacyclopentadecane-5-carboxamide]
25.1 nM	1160 nM		19.6 nM	CC(=O)N[C@H]1CCCCNC(=O)C[C@@H](C(=O)N[C@@H](CCCNC(=N)N)C(=O)c2nc3ccccc3s2)NC(=O)[C@H](CC(C)C)NC1=O [VD2167, (2S,5S,13S)-13-acetamido-N—((S)-1-(benzo[d]thiazol-2-yl)-5-guanidino-1-oxopentan-2-yl)-2-isobutyl-3,7,14-trioxo-1,4,8-triazacyclotetradecane-5-carboxamide]
10.1 nM		4750 nM	19.1 nM	C=CCNC(=O)CC[C@H](NC(=O)[C@H](CC(C)C)NC(=O)[C@H](Cc1ccc(OCC=C)cc1)NC(C)=O)C(=O)N[C@@H](CCCNC(=N)N)C(=O)c1nc2ccccc2s1 [VD4022, (S)-2-((S)-2-((S)-2-acetamido-3-(4-(allyloxy)phenyl)propanamido)-4-methylpentanamido)-N5-allyl-N1-((S)-1-(benzo[d]thiazol-2-yl)-5-guanidino-1-oxopentan-2-yl)pentanediamide]
1.15 nM		14000 nM	9.49 nM	CC(=O)N[C@@H](Cc1ccc(O)c([N+](=O)[O-])c1)C(=O)N[C@@H](CC(C)C)C(=O)N[C@@H](Cc1ccc(Br)cc1)C(=O)N[C@@H](CCCNC(=N)N)C(=O)c1nc2ccccc2s1 [VD4112]

Second part, the compound before the results:

SMILES	IC50 [1]	IC50 [2]	IC50 [3]	IC50 [4]
CC(=O)N[C@H]1CCCCNC(=O)CCC(C(=O)N[C@H](CCCNC(=N)N)C(=O)c2nc3ccccc3s2)NC(=O)[C@H](CCCNC(=N)N)NC1=O (some centres unmarked) [VD2109A]	0.14 nM		4090 nM	0.19 nM
CC(=O)N[C@H]1CCC(=O)NCCCC[C@@H](C(=O)N[C@@H](CCCNC(=N)N)C(=O)c2nc3ccccc3s2)NC(=O)[C@H](CC(C)C)NC1=O [VD2169, (2S,5S,14S)-14-acetamido-N—((S)-1-(benzo[d]thiazol-2-yl)-5-guanidino-1-oxopentan-2-yl)-2-isobutyl-3,11,15-trioxo-1,4,10-triazacyclopentadecane-5-carboxamide]	8.4 nM	1710 nM		3.1 nM
CC(=O)N[C@H]1Cc2ccc(cc2)OC/C=C\C[C@@H](C(=O)NC(CCCNC(=N)N)C(=O)c2nc3ccccc3s2)NC(=O)[C@H](CC(C)C)NC1=O (some centres unmarked) [VD4010A]	1.14 nM		197 nM	31.6 nM
CC(=O)N[C@H]1Cc2ccc(cc2)OC/C=C\CNC(=O)CC[C@@H](C(=O)N[C@@H](CCCNC(=N)N)C(=O)c2nc3ccccc3s2)NC(=O)[C@H](CC(C)C)NC1=O [VD4018, (11S,14S,17S,Z)-17-acetamido-N—((S)-1-(benzo[d]thiazol-2-yl)-5-guanidino-1-oxopentan-2-yl)-14-isobutyl-8,13,16-trioxo-2-oxa-7,12,15-triaza-1(1,4)-benzenacyclooctadecaphan-4-ene-11-carboxamide]	6.31 nM	1240 nM		9.84 nM
CC(=O)N[C@H]1Cc2ccc(cc2)OC/C=C\CNC(=O)C[C@@H](C(=O)N[C@H](CCCNC(=N)N)C(=O)c2nc3ccccc3s2)NC(=O)[C@H](CC(C)C)NC1=O [VD4054A]	14 nM		> 20000 nM	76.6 nM
CC(=O)N[C@H]1Cc2ccc(cc2)OCCCC[C@@H](C(=O)N[C@H](CCCNC(=N)N)C(=O)c2nc3ccccc3s2)NC(=O)[C@H](Cc2ccccc2)NC1=O [VD4111A]	12.7 nM		3280 nM	330 nM
CC(=O)N[C@@H](Cc1ccc(O)c([N+](=O)[O-])c1)C(=O)N[C@@H](CC(C)C)C(=O)N[C@@H](Cc1ccc(Br)cc1)C(=O)N[C@H](CCCNC(=N)N)C(=O)c1nc2ccccc2s1 [VD4112A]	23.9 nM		3510 nM	111 nM
